Assay in all cases: ≥ marks a high value that may be exact or a test limit, other limits are often not marked, values filed in µg/mL are converted to µM
Assay [1] concerns Staphylococcus aureus NCTC 10788.
For assay [2], the system named is Klebsiella pneumoniae.
Assay [3] has as its system Salmonella typhimurium.
The subject of assay [4] is Escherichia coli DH5alpha.
The subject of assay [5] is Pseudomonas aeruginosa.
Assay [6] deals with Micrococcus luteus ATCC 9341.
Assay [7] deals with Staphylococcus epidermidis KCTC 1917.
The subject of assay [8] is Escherichia coli KCTC 1682.
For assay [9], the system named is Salmonella typhimurium KCTC 1926.
Assay [10] deals with Staphylococcus aureus KCTC 1621.
Assay [11] concerns Bacillus subtilis KCTC 3068.
The test system of assay [12] is Pseudomonas aeruginosa KCTC 1637.
Assay [13] concerns Staphylococcus aureus ATCC 33591.
In assay [14] the test system is Escherichia coli ATCC 25922.
The test system of assay [15] is Escherichia coli UB1005.
The subject of assay [16] is Staphylococcus epidermidis ATCC 12228.
In assay [17] the test system is Salmonella enterica subsp. enterica serovar Typhimurium C77-31.
The subject of assay [18] is Enterococcus faecalis ATCC 29212.
The test system of assay [19] is Staphylococcus aureus ATCC 25923.
Assay [20] concerns Staphylococcus aureus ATCC 29213.

≈ marks a conversion by molar mass, not a printed value.

On to `CC(C)C[C@H](NC(=O)[C@H](CC(C)C)NC(=O)CNC(=O)[C@H](C)NC(=O)[C@H](CC(C)C)NC(=O)[C@H](CC(C)C)NC(=O)CNC(=O)[C@@H]1CCCN1C(=O)[C@H](CC(C)C)NC(=O)[C@@H](N)Cc1ccccc1)C(N)=O` [FLPGLLAGLL], for which, in assay [1], the MIC is ≥ 60 µM.
Consider `CC[C@H](C)[C@H](N)C(=O)N[C@@H](CC(C)C)C(=O)N[C@@H](C)C(=O)N[C@@H](Cc1c[nH]c2ccccc12)C(=O)N[C@@H](CCCCN)C(=O)N[C@@H](Cc1c[nH]c2ccccc12)C(=O)N[C@@H](C)C(=O)N[C@@H](Cc1c[nH]c2ccccc12)C(=O)N[C@@H](Cc1c[nH]c2ccccc12)C(=O)N1CCC[C@H]1C(=O)N[C@@H](Cc1c[nH]c2ccccc12)C(=O)N[C@@H](CCCN=C(N)N)C(=O)N[C@@H](CCCN=C(N)N)C(N)=O` [ILAWKWAWWPWRR], for which the minimum inhibitory concentration (MIC) in [2] worked out at 25 µM (≈ 46.4 µg/mL); in [3], 25 µM (≈ 46.4 µg/mL); in [4], 15 µM (≈ 27.8 µg/mL); in assay [5] it was 100 µM (≈ 185 µg/mL).
For the compound `CC[C@H](C)[C@H](N)C(=O)N[C@@H](CC(C)C)C(=O)N[C@@H](C)C(=O)N[C@@H](Cc1c[nH]c2ccccc12)C(=O)N[C@@H](CCCCN)C(=O)N[C@@H](Cc1c[nH]c2ccccc12)C(=O)N1CCC[C@H]1C(=O)N[C@@H](Cc1c[nH]c2ccccc12)C(=O)N[C@@H](Cc1c[nH]c2ccccc12)C(=O)N[C@@H](C)C(=O)N[C@@H](Cc1c[nH]c2ccccc12)C(=O)N[C@@H](CCCN=C(N)N)C(=O)N[C@@H](CCCN=C(N)N)C(N)=O` [ILAWKWPWWAWRR], the MIC in [2] was found to be 50 µM (≈ 92.7 µg/mL); in assay [3], 25 µM (≈ 46.4 µg/mL); in [4], 25 µM (≈ 46.4 µg/mL); in assay [5], 100 µM (≈ 185 µg/mL).
For `CC[C@H](C)[C@H](N)C(=O)N[C@@H](CC(C)C)C(=O)N1CCC[C@H]1C(=O)N[C@H](C(=O)N[C@@H](CCCCN)C(=O)N[C@H](C(=O)N1CCC[C@H]1C(=O)N[C@H](C(=O)N[C@H](C(=O)N1CCC[C@H]1C(=O)N[C@H](C(=O)N[C@@H](CCCN=C(N)N)C(=O)N[C@@H](CCCN=C(N)N)C(N)=O)C(C)C)C(C)C)C(C)C)C(C)C)C(C)C` [ILPVKVPVVPVRR], the MIC in [6] is ≥ 100 µM.
Same read-out and setting: the value for `CC[C@H](C)[C@H](N)C(=O)N[C@@H](CC(C)C)C(=O)N1CCC[C@H]1C(=O)N[C@@H](Cc1c[nH]c2ccccc12)C(=O)N[C@@H](C)C(=O)N[C@@H](Cc1c[nH]c2ccccc12)C(=O)N1CCC[C@H]1C(=O)N[C@@H](Cc1c[nH]c2ccccc12)C(=O)N[C@@H](Cc1c[nH]c2ccccc12)C(=O)N1CCC[C@H]1C(=O)N[C@@H](Cc1c[nH]c2ccccc12)C(=O)N[C@@H](CCCN=C(N)N)C(=O)N[C@@H](CCCN=C(N)N)C(N)=O` [ILPWAWPWWPWRR] was 0.8 µM (≈ 1.48 µg/mL).
`CC[C@H](C)[C@H](N)C(=O)N[C@@H](CC(C)C)C(=O)N1CCC[C@H]1C(=O)N[C@@H](Cc1c[nH]c2ccccc12)C(=O)N[C@@H](CCCCN)C(=O)N[C@@H](CCCCN)C(=O)N1CCC[C@H]1C(=O)N[C@@H](CCCCN)C(=O)N[C@@H](CCCCN)C(=O)N1CCC[C@H]1C(=O)N[C@@H](Cc1c[nH]c2ccccc12)C(=O)N[C@@H](CCCN=C(N)N)C(=O)N[C@@H](CCCN=C(N)N)C(N)=O` [ILPWKKPKKPWRR]: the MIC turned out to be 2.88 µM (≈ 5 µg/mL) in [7]; 2.88 µM (≈ 5 µg/mL) in assay [8]; 5.77 µM (≈ 9.99 µg/mL) in assay [9]; 5.77 µM (≈ 9.99 µg/mL) in assay [10]; 5.77 µM (≈ 9.99 µg/mL) in [11]; 11.5 µM (≈ 20 µg/mL) in [12].
Regarding `CC[C@H](C)[C@H](N)C(=O)N[C@@H](CC(C)C)C(=O)N1CCC[C@H]1C(=O)N[C@@H](Cc1c[nH]c2ccccc12)C(=O)N[C@@H](CCCN=C(N)N)C(=O)N[C@@H](Cc1c[nH]c2ccccc12)C(=O)N1CCC[C@H]1C(=O)N[C@@H](Cc1c[nH]c2ccccc12)C(=O)N[C@@H](Cc1c[nH]c2ccccc12)C(=O)N1CCC[C@H]1C(=O)N[C@@H](Cc1c[nH]c2ccccc12)C(=O)N[C@@H](CCCN=C(N)N)C(=O)N[C@@H](CCCN=C(N)N)C(N)=O` [ILPWRWPWWPWRR], the minimal inhibitory concentration (MIC) in assay [6] was 0.4 µM (≈ 0.774 µg/mL).
For the compound `CC[C@H](C)[C@H](NC(=O)[C@@H](N)CCCCN)C(=O)N[C@@H](Cc1c[nH]c2ccccc12)C(=O)N[C@@H](Cc1ccccc1)C(=O)N[C@@H](CCC(N)=O)C(=O)N[C@@H](CC(N)=O)C(=O)N[C@@H](CCCN=C(N)N)C(=O)N[C@@H](CCCN=C(N)N)C(=O)N[C@@H](CCSC)C(=O)N[C@@H](CCCCN)C(=O)N[C@@H](Cc1c[nH]c2ccccc12)C(=O)N[C@@H](CCCCN)C(=O)N[C@@H](CCCCN)C(N)=O` [KIWFQNRRMKWKK], the results for the minimal inhibitory concentration (MIC) in assay [13] and in [14] were ≥ 256 µM and 128 µM (≈ 237 µg/mL), respectively.
In the case of `C[C@@H](O)[C@H](NC(=O)[C@H](CCCCN)NC(=O)[C@H](Cc1c[nH]c2ccccc12)NC(=O)[C@H](Cc1c[nH]c2ccccc12)NC(=O)[C@@H](NC(=O)[C@H](CCCCN)NC(=O)[C@@H](N)CCCCN)[C@@H](C)O)C(=O)N[C@@H](Cc1c[nH]c2ccccc12)C(=O)N[C@@H](Cc1c[nH]c2ccccc12)C(=O)N[C@H](C(=O)N[C@@H](CCCCN)C(=O)N[C@@H](Cc1c[nH]c2ccccc12)C(=O)N[C@@H](CCCCN)C(=O)N[C@@H](CCCCN)C(=O)O)[C@@H](C)O` [KKTWWKTWWTKWKK], the MIC is 2 µM (≈ 4.04 µg/mL) in assay [7]; 2 µM (≈ 4.04 µg/mL) in assay [8]; 2 µM (≈ 4.04 µg/mL) in assay [9]; 2 µM (≈ 4.04 µg/mL) in [10]; 2 µM (≈ 4.04 µg/mL) in assay [11]; 4 µM (≈ 8.09 µg/mL) in [12].
`NCCCC[C@H](NC(=O)[C@H](Cc1c[nH]c2ccccc12)NC(=O)[C@@H]1CCCN1)C(=O)N[C@@H](Cc1c[nH]c2ccccc12)C(=O)N1CCC[C@H]1C(=O)N[C@@H](Cc1c[nH]c2ccccc12)C(=O)N[C@@H](Cc1c[nH]c2ccccc12)C(=O)N1CCC[C@H]1C(=O)N[C@@H](Cc1c[nH]c2ccccc12)C(=O)N[C@@H](CCCN=C(N)N)C(=O)N[C@@H](CCCN=C(N)N)C(N)=O` [PWKWPWWPWRR] came in with an MIC in assay [6] of 0.8 µM (≈ 1.34 µg/mL).
Regarding `CC[C@H](C)[C@H](NC(=O)[C@H](CCCCN)NC(=O)[C@H](CCCCN)NC(=O)[C@H](CC(C)C)NC(=O)[C@H](CCCN=C(N)N)NC(=O)[C@H](CCCCN)NC(=O)[C@H](CCCN=C(N)N)NC(=O)[C@@H](NC(=O)[C@H](Cc1c[nH]c2ccccc12)NC(=O)[C@H](Cc1c[nH]c2ccccc12)NC(=O)[C@H](CCCN=C(N)N)NC(=O)[C@H](CC(C)C)NC(=O)[C@H](CCCN=C(N)N)NC(=O)[C@H](CCCN=C(N)N)NC(=O)[C@H](Cc1ccccc1)NC(=O)[C@@H](N)CCCN=C(N)N)[C@@H](C)O)C(N)=O` [RFRRLRWWTRKRLKKI], the minimum inhibitory concentration (MIC) in assay [15] is 8 µM (≈ 18.4 µg/mL); in assay [16], 4 µM (≈ 9.2 µg/mL); in assay [17] it was 8 µM (≈ 18.4 µg/mL); in assay [18], 8 µM (≈ 18.4 µg/mL).
For the compound `CC[C@H](C)[C@H](NC(=O)[C@H](CCCN=C(N)N)NC(=O)[C@H](CC(C)C)NC(=O)[C@H](CC(C)C)NC(=O)[C@@H](N)CCCN=C(N)N)C(=O)N[C@H](C(=O)N[C@H](C(=O)N[C@H](C(=O)N[C@@H](CCCN=C(N)N)C(=O)N[C@H](C(=O)N[C@@H](CC(C)C)C(=O)N[C@@H](CCCN=C(N)N)C(N)=O)C(C)C)[C@@H](C)CC)C(C)C)C(C)C` [RLLRIVVIRVLR], the MIC in assay [7] is 8.3 µM (≈ 12.5 µg/mL); in [8] it was 16.6 µM (≈ 25 µg/mL); in assay [9], 4.15 µM (≈ 6.25 µg/mL); in [10], 8.3 µM (≈ 12.5 µg/mL); in assay [11], 8.3 µM (≈ 12.5 µg/mL); in assay [12], 4.15 µM (≈ 6.25 µg/mL).
Take `CC(C)C[C@H](NC(=O)[C@H](CCCN=C(N)N)NC(=O)[C@H](Cc1c[nH]c2ccccc12)NC(=O)[C@H](CCCN=C(N)N)NC(=O)[C@@H](NC(=O)[C@H](Cc1c[nH]c2ccccc12)NC(=O)[C@H](Cc1c[nH]c2ccccc12)NC(=O)[C@H](CCCN=C(N)N)NC(=O)[C@H](CC(C)C)NC(=O)[C@H](CCCN=C(N)N)NC(=O)[C@@H](N)CCCN=C(N)N)[C@@H](C)O)C(=O)N[C@@H](CCCCN)C(N)=O` [RRLRWWTRWRLK]: the MIC in assay [15] came to 4 µM (≈ 7.25 µg/mL); in assay [16], 8 µM (≈ 14.5 µg/mL); in [19], 8 µM (≈ 14.5 µg/mL); in assay [17], 8 µM (≈ 14.5 µg/mL); in [14], 4 µM (≈ 7.25 µg/mL); in assay [20], 4 µM (≈ 7.25 µg/mL).
For the compound `NC(=O)[C@H](CCCN=C(N)N)NC(=O)[C@H](Cc1c[nH]c2ccccc12)NC(=O)[C@@H](N)CCCN=C(N)N` [RWR], the minimal inhibitory concentration (MIC) in [7], in assay [8], in assay [10] and in assay [12] was ≥ 124 µM each time.

As usually defined, the MIC is the lowest concentration that inhibits growth of the organism. Higher therefore signals a need for much substance.

The values are drawn from DBAASP.
